# Results published in patent publication US9566222B2, “Peptidyl arginine deiminase 1 and/or 3 activator compounds in the epidermis and uses thereof” (PIERRE FABRE DERMO-COSMETIQUE, priority 2011, dated 2017).
# Experiments:
# [1] = test system: Reconstructed human epidermises; assay: Deiminated proteins in horny layer of reconstructed epidermises after topical gel, immunohistology (AMC); format: cell-based; settings: gel containing 3% acefylline as sodium salt, 24 hours
# Method: Reconstructed human epidermises 0.33 cm^2 in size were grown at the air-liquid interface for 14 days. 5 mg/cm^2 of pre-formulas containing the various active agents was then applied homogeneously to their surface using a brush. Triplicates were carried out for a treatment period of 24 hours at 37° C. The epidermises were then divided: half were frozen in Tissue Tek and then 6 μm cryo-sections were made for immunohistology; the other half were dry frozen at −80° C. for the preparation of total protein extracts before analysis by Western blot.
# The deiminated proteins were immunodetected as described above after incubation in modification buffer. Negative controls were prepared systematically by omitting the modification. After washing with water, the sections were incubated with AMC anti-citrulline antibody diluted to 1/1000. Finally, counter-staining was carried out with hematoxylin.
# PAD1 = biological target: T1, PAD1 (Homo sapiens, UniProt Q9ULC6); assay: Deimination of recombinant human filaggrin (Fil-His) by PAD1, immunodetection with AMC anti-citrulline antibody; format: biochemical; settings: 5 mM streptomycin vs solvent alone (1% dimethylsulfoxide); 3 or 5 min incubation
# T1 construct: purchased Professor Hidenari Takahara (University of Ibaraki, Japan)
# T1 sequence (Q9ULC6 1-663): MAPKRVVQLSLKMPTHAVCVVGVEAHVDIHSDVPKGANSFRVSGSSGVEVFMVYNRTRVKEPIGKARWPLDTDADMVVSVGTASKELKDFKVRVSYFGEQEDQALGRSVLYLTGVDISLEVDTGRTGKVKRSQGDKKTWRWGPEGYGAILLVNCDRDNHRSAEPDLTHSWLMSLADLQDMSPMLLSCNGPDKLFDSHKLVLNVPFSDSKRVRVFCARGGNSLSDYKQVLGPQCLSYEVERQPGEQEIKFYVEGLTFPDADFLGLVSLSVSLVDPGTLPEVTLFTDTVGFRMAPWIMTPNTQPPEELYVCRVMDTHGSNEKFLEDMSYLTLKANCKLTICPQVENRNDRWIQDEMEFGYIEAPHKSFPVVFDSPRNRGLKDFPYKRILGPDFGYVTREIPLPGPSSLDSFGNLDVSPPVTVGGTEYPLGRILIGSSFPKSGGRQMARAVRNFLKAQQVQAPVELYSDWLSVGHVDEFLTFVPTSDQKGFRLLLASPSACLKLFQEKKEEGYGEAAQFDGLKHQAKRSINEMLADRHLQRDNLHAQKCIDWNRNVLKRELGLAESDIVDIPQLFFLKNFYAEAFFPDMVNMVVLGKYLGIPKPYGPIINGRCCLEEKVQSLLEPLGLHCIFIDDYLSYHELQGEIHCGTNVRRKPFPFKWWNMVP
# Method: 25 ng of Fil-His was incubated at 50° C. in the presence of 40 mU of PAD1 or PAD3 in deimination buffer (10 mM CaCl2, 5 mM dithiothreitol, 50 mM Tris-HCl pH 7.4). After a variable incubation period according to the PAD isoform (generally 2 to 5 minutes for PAD1 and 60 to 180 minutes for PAD3), the reaction was quenched by adding sample buffer. The proteins were then separated by SDS-PAGE and immunodetected by AHF11 anti-filaggrin monoclonal antibody and AMC modified anti-citrulline antibody (Millipore, Mollsheim, France) diluted to 1/5000.
# The deimination of Fil-His (25 ng) was carried out as described above (paragraph A.3), in deimination buffer (10 mM CaCl2, 5 mM dithiothreitol, 50 mM Tris-HCl pH 7.4) at 50° C. in the presence of 40 mU of PAD1 or PAD3, for 0, 3, 5, 60 and 180 minutes. […] In certain cases, the active agents were diluted in water. After incubation, the proteins of the reaction mixture were immunodetected by AMC antibody. The immunodetection intensity was quantified by densitometry with the NIH ImageJ software.
SMILES,Immunodetection intensity (AMC staining) of the horny layer vs control gel [1],Effect on PAD1 (AMC immunodetection intensity of deiminated Fil-His) (PAD1)
Cn1c(=O)c2c(ncn2CC(=O)[O-])n(C)c1=O.[Na+] [acefylline in the form of sodium salt],stronger,
[H]/N=C(/N)N[C@H]1[C@H](O)[C@@H](O)[C@H](O[C@@H]2O[C@@H](C)[C@](O)(C=O)[C@H]2O[C@@H]2O[C@@H](CO)[C@H](O)[C@@H](O)[C@@H]2NC)[C@@H](N/C(N)=N\[H])[C@@H]1O [streptomycin],,inhibited
